1 compound from PMC3654204, “2-Aminoethoxydiphenyl borate activates the mechanically gated human KCNK channels KCNK 2 (TREK-1), KCNK 4 (TRAAK), and KCNK 10 (TREK-2)” (Frontiers in Pharmacology, 2013) can be followed below.

What all share (test): two-electrode voltage clamp, Xenopus oocytes, current at +[…] mV
Holding throughout (assay type): cell-based
A general note: In two-electrode clamp one electrode senses voltage and the other passes current.

In one assay the target is T1, hKCNK10 (TREK-2) (Homo sapiens, UniProt P57789).
T1 construct: gene KCNK10; full-length cDNA clone purchased from Imagenes, subcloned into pSGEM (cRNA, Xenopus laevis oocytes) and pCDNA3 (HEK293); K2P channels are homodimers
T1 sequence (P57789 1-538): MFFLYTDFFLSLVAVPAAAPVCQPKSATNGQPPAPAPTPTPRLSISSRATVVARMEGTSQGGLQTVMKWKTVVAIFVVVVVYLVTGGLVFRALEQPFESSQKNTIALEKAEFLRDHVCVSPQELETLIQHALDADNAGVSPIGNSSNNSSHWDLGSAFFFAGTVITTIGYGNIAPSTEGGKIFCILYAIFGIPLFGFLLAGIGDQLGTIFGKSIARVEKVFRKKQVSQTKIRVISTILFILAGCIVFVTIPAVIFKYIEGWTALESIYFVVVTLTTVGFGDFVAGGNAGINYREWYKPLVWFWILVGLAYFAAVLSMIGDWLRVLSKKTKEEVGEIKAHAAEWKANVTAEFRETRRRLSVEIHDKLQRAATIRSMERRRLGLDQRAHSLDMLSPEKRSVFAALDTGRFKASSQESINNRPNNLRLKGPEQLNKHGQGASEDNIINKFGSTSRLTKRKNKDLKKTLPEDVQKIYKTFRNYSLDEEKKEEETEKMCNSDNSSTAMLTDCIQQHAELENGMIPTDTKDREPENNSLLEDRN

For another assay, the target named is T2, hKCNK2 (hTREK-1) (Homo sapiens, UniProt O95069).
T2 construct: gene KCNK2; full-length cDNA clone in pDNR-dual purchased from Imagenes, subcloned into pSGEM; cRNA injected in Xenopus laevis oocytes; K2P channels are homodimers
T2 sequence (O95069 1-426): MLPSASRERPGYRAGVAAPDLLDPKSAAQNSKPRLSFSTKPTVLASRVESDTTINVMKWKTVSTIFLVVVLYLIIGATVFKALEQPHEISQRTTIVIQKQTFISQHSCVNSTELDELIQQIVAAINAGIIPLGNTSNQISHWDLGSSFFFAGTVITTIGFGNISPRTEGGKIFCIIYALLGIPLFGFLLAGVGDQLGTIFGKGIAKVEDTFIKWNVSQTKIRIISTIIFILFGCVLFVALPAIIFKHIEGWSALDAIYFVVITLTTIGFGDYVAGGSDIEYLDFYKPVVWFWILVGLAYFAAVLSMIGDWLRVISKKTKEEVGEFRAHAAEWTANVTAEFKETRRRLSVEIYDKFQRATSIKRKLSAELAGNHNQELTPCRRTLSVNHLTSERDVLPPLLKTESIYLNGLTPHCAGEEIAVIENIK

A further assay has as its target T3, hKCNK4 (hTRAAK) (Homo sapiens, UniProt Q9NYG8).
T3 construct: gene KCNK4; full-length cDNA clone in pBluescript SK+ purchased from Imagenes; cRNA injected in Xenopus laevis oocytes, pCDNA3 in HEK293; K2P channels are homodimers
T3 sequence (Q9NYG8 1-393): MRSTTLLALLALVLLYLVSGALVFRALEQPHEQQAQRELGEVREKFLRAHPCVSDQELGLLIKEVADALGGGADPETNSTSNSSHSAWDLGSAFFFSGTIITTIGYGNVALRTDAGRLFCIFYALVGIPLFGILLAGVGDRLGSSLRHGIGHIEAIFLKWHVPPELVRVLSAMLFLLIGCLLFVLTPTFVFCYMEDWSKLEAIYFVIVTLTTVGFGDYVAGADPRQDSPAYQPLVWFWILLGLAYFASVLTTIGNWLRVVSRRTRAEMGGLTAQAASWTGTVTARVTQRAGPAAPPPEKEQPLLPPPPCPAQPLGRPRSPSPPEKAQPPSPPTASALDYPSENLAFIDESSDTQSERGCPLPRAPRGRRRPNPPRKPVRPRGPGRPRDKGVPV
The settings on record: activator; frog Ringer's solution, pH 7.2; EC50 could not be determined; also active in inside-out HEK293 patches.

By EC50 is commonly meant the concentration giving half of the maximal effect. Read a low EC50 as a more potent agent. As to `NCCOB(c1ccccc1)c1ccccc1` [2-APB], the concentration for a half-maximal effect (EC50) turned out to be 1220 ± 390 µM at hKCNK10 (TREK-2) and 486 ± 135 µM at hKCNK2 (hTREK-1). Further, the “fold of basal current at 1 mM” value at hKCNK4 (hTRAAK) was 2.68 ± 0.2 fold.
